In patent publication US12286632B2, “Rationally-designed synthetic peptide shuttle agents for delivering polypeptide cargos from an extracellular space to the cytosol and/or nucleus of a target eukaryotic cell, uses thereof, methods and kits relating to same” (Feldan Bio Inc., priority 2016, dated 2025):
Ends that are not written are not given here.

Legend:
[1] = test system: HeLa cells; experiment: FITC-labeled anti-tubulin antibody transduction assay (flow cytometry, cell viability, microscopy); conditions: FITC-labeled anti-tubulin antibody 0.5 μM, HeLa, 1 hour; shuttle 3.5 μM
Method: The delivery and microscopy protocols are described in Example 3.
HeLa cells were cultured and tested in the protein transduction assay described in Example 3.1. […] The cells were subjected to flow cytometry analysis as described in Example 3.3.

[2] = test system: HeLa cells; experiment: Cytotoxic activity of NK92 against HeLa cells with GSK3 inhibitor; type: cell-based, Human; conditions: data not shown
[3] = test system: NKG2A genomic DNA sequence; experiment: T7E1 DNA cleavage assay / % INDELs after CRISPR/Cpf1-NLS delivery (NK and NK-92 cells); type: cell-based, Human; conditions: gene target NKG2A, CRISPR/Cpf1 1.33 μM, crRNA 2 μM, peptide 6 μM, 1 min in PBS, n=2
Source text: The T7 endonuclease I (T7E1) can be used to detect on-target CRISPR/Cas genome editing events in cultured cells. As an overview, genomic DNA from target cells is amplified by PCR. The PCR products are then denatured and reannealed to allow heteroduplex formation between wild-type DNA and CRISPR/Cas-mutated DNA. T7E1, which recognizes and cleaves mismatched DNA, is used to digest the heteroduplexes. The resulting cleaved and full-length PCR products are visualized by gel electrophoresis.
The T7E1 assay was performed with the Edit-R™ Synthetic crRNA Positive Controls (Dharmacon #U-007000-05) and the T7 Endonuclease I (NEB, Cat #M0302S). After the delivery of the CRISPR/Cas complex, cells were lysed in 100 μL of Phusion™ High-Fidelity DNA polymerase (NEB #M0530S) laboratory with additives. The cells were incubated for 15-30 minutes at 56° C., followed by deactivation for 5 minutes at 96° C. The plate was briefly centrifuged to collect the liquid at bottom of the wells. 50-μL PCR samples were set up for each sample to be analyzed. The PCR samples were heated to 95° C. for 10 minutes and then slowly (>15 minutes) cooled to room temperature. PCR product (-5 μL) was then separated on an agarose gel (2%) to confirm amplification. 15 μL of each reaction was incubated with T7E1 nuclease for 25 minutes at 37° C. […]

[4] = test system: T cells; type: cell-based, human
Method: Unless otherwise specified, T cells used herein were obtained from healthy human blood collected in heparinized tubes. T cells were isolated using a Ficoll™ technique (Ficoll-Paque™ GE or Lymphoprep™ Stem Cell Technologies). Briefly, blood was mixed with the Ficoll™ solution in conical tubes (50 mL) and centrifuged at 2280 rpm for 20 minutes. Mononuclear cells were harvested and transferred in another conical tube (50 mL) before washing with PBS and centrifugation at 1100 rpm for 10 minutes. Cells were resuspended in 5 mL of PBS containing 20% FBS. Cells were counted and then incubated in a culture medium composed by RPMI advanced (cat: 12633012 ThermoFisher), 10% FBS, 1% Penstrep (15140122 ThermoFisher), 1% L-glutamine (25030081 ThermoFisher) IL-2 30U/ml). Next, T cells were enriched with a Human T cell Enrichment Kit (StemCell #cat: 19051) by negative selection following the manufacturer instructions. The enriched T cells were validated using a specific anti-CD3 antibody (Biolegend #cat: 300438). At this step, collected cells were typically around 99% T cells. T cells were activated by adding IL-2 at 30 U/mL and the anti-CD28 antibody (ThermoFisher #cat: 16-0289-85) in complete medium for 5 days prior to experimentation. The activation of T cell expansion was then double-checked with both anti-CD25 and anti-CD137 antibodies. […]

[5] = in vitro; conditions: human, HeLa cells, Cell viability (%) (±St Dev.; n = 3)
[6] = in vitro; conditions: human, THP-1 cells
[7] = in vitro; conditions: human, HeLa cells
[8] = Plasmid DNA (pEGFP-C1) transfection by peptides (% cells with GFP signal, cell viability); conditions: human, HeLa cells
[9] = in vitro
[10] = test system: HeLa cells; type: cell-based; conditions: peptide 5 μM; fold-increase relative to untreated calcein-loaded cells
Source text: Calcein is a membrane-impermeable fluorescent molecule that is readily internalized by cells when administered to the extracellular medium. Its fluorescence is […] and calcein self-quenches at higher concentrations. Once internalized, calcein becomes sequestered at high concentrations in cell endosomes and can be visualized by fluorescence microscopy as a punctate pattern. Following endosomal leakage, calcein is released to the cell cytoplasm and this release can be visualized by fluorescence microscopy as a diffuse pattern.
The cells were allowed to attach by incubating overnight in appropriate growth media, as described in Example 1. The next day, the media in wells was removed and replaced with 50 μL of fresh media without serum containing 62.5 μg/mL (100 μM) of calcein, except for HEK293A (250 μg/mL, 400 μM). […]
Untreated calcein-loaded cells were used as a control to distinguish cells having a baseline of fluorescence due to endosomally-trapped calcein from cells having increased fluorescence due to release of calcein from endosomes. Fluorescence signal means (“mean counts”) were analyzed for endosomal escape quantification. In some cases, the “Mean Factor” was calculated, which corresponds to the fold-increase of the mean counts relative to control (untreated calcein-loaded cells). […] The cellular mortality was monitored with the percentage of cells in the total events scanned. […]

[11] = test system: HeLa cells; type: cell-based, Human; conditions: GFP 5 μM; 5 μM of each peptide; 1 hour; data not shown
[12] = test system: HeLa cells; experiment: GFP-NLS protein transduction assay (flow cytometry: Pos cells %, viability %, relative fluorescence intensity; microscopy); conditions: Table 10.3b; Protocol B; HeLa; shuttle 50 μM; GFP-NLS 5 μM; 10 seconds

For `CC[C@H](C)[C@H](NC(=O)[C@H](CCCCN)NC(=O)[C@H](CCCCN)NC(=O)[C@H](Cc1ccccc1)NC(=O)[C@H](CC(C)C)NC(=O)[C@H](CCCCN)NC(=O)[C@H](Cc1c[nH]c2ccccc12)NC(=O)[C@@H](N)CCCCN)C(=O)NCC(=O)N[C@@H](C)C(=O)N[C@H](C(=O)N[C@@H](CC(C)C)C(=O)N[C@@H](CCCCN)C(=O)N[C@H](C(=O)N[C@@H](CC(C)C)C(=O)N[C@H](C(=O)N[C@H](C(=O)NCC(=O)N[C@@H](CCCNC(=N)N)C(=O)N[C@@H](CCC(N)=O)C(=O)N[C@H](C(=O)N[C@@H](CCCCN)C(=O)N[C@H](C(=O)N[C@@H](Cc1c[nH]c2ccccc12)C(=O)N[C@@H](Cc1ccccc1)C(=O)N[C@@H](CCC(N)=O)C(=O)N[C@@H](CC(N)=O)C(=O)N[C@@H](CCCNC(=N)N)C(=O)N[C@@H](CCCNC(=N)N)C(=O)N[C@@H](CCSC)C(=O)N[C@@H](CCCCN)C(=O)N[C@@H](Cc1c[nH]c2ccccc12)C(=O)N[C@@H](CCCCN)C(=O)N[C@@H](CCCCN)C(=O)N[C@@H](CS)C(=O)O)[C@@H](C)CC)[C@@H](C)CC)[C@@H](C)O)[C@@H](C)O)C(C)C)C(C)C` [CM18-Penetratin-Cys], the “FIG. 19B Cell viability (%) (± St. Dev.; n = 3)” value [1] was 73 ± 9.5%.
With `Cn1cc(C2=C(c3ccc(Cl)cc3Cl)C(=O)NC2=O)c2ccccc21` [SB216763] the “effect on cytotoxic activity of NK92” value [2] was “enhances the cytotoxic activity of NK92 against HeLa cells”.
For “FSD100 (HHHHHHFLKIWSRLIKIWTQGRRKGAQAAFRHHHHHH)”, the “% INDELs” value [3] was 16%.
In the case of “FSD101 (HHHHHHRFAAQAGKRRGQTWIKILRSWIKLF)”, the “% INDELs” value [3] is reported as 17%.
In the case of HHHHHHFLKIWSRLIKIWTQGRRKGAQAAFR [FSD21], the “viability of transduced T cells (FSC/SSC, in words)” value [4] is reported as “viability of the transduced T cells was not substantially affected”, the viability [5] is reported as 75.6 ± 5.99% and the viability at 15 s, 5 µM [6] is reported as 62.5 ± 5.16%. It also gave a viability at 0.5 min, 2 µM [6] of 75.6 ± 6.38% and a viability [7] of 96.2 ± 1.69%.
“HHHHHHVWKLFWTLLAAIYGRGKARQKRAKRQARG [Peptide F5D25]” showed a viability [8] of 98.2 ± 1.19%.
With HHHHHHYARAAARQARA [Peptide 6His-PTD4] the viability [8] was 97.2 ± 1.34%.
For “LLKLWSRLLKLWTQGGSGGGSGRRLKAKRAKA [FSD18]”, the “viability of transduced T cells (FSC/SSC, in words)” value [4] was “viability of the transduced T cells was not substantially affected”, the viability [5] was 82.4% and the viability at 0.5 min, 2 µM [6] was 97.9 ± 1.73%. For the same compound, the viability at 1 min, 1 µM [6] was 95.3 ± 3.11%, the viability at 1 min, 2 µM [6] was 98.6 ± 0.37% and the viability at 0.025 h, 1 µM [6] was 86.5 ± 6.27%. For the same compound, the viability at 0.25 h, 5 µM ([9]; NK cells) was 94.9 ± 1.63%, the viability at 0.5 h, 2 µM ([9]; NK cells) was 98.3 ± 1% and the viability at 1.5 h, 1 µM ([9]; NK cells) was 99.1 ± 0.08%. The viability at 0.5 h, 2 µM ([9]; human, DOHH2 cells) was 79.8 ± 6.18%, the viability at 0.5 h, 10 µM ([9]; human, DOHH2 cells) was 25 ± 2.66% and the viability at 1.5 h, 1 µM ([9]; human, DOHH2 cells) was 62.5 ± 6.17%. For the same compound, the viability at 0.5 h, 2 µM ([9]; human, Jurkat cells) was 97.4 ± 1.09%, the viability at 0.5 h, 10 µM ([9]; human, Jurkat cells) was 96.6 ± 2.46% and the viability at 1.5 h, 1 µM ([9]; human, Jurkat cells) was 98.6 ± 0.39%. For the same compound, the viability at 0.5 h, 2 µM ([9]; human, KMS-12BM cells) was 95.1 ± 3.56%, the viability at 0.5 h, 10 µM ([9]; human, KMS-12BM cells) was 92.7 ± 4.11% and the viability at 1.5 h, 1 µM ([9]; human, KMS-12BM cells) was 97.6 ± 1.05%. The viability at 0.5 h, 2 µM ([9]; human, REC-1 cells) was 99 ± 0.39%, the viability at 0.5 h, 10 µM ([9]; human, REC-1 cells) was 25 ± 3.17% and the viability at 1.5 h, 1 µM ([9]; human, REC-1 cells) was 96.2 ± 2.53%. The viability at 0.5 h, 2 µM ([9]; mouse, HT2 cells) was 80.7 ± 7.1%, the viability at 0.5 h, 10 µM ([9]; mouse, HT2 cells) was 63.9 ± 5.35% and the viability at 1.5 h, 1 µM ([9]; mouse, HT2 cells) was 88.3 ± 7.91%.
For “RQIKIWFQNRRMKWKKC [Penetratin-Cys, reference compound]”, the “Mean Factor” value [10] was 1.1 and the “GFP intracellular delivery (fluorescence microscopy)” value [11] was “not successfully delivered intracellularly”.
In the case of “YARAAARQARAWEAKLAKALAKALAKHLAKALAKALKACEA [PTD4-KALA]”, the viability [8] is reported as 53.6 ± 3.91% and the “Cell viability (%) (±St. Dev.; n = 3)” value [12] is reported as 91.4 ± 3.67%.
In the case of “YGRKKRRQRRRC [TAT-Cys, CPD single-domain peptide with C-terminal Cys, reference compound]”, the “Mean Factor” value [10] is reported as 1.3 and the “GFP intracellular delivery (fluorescence microscopy)” value [11] is reported as “not successfully delivered intracellularly”.
